The source made the active and inactive calls. No cut-off for these calls is given here.
Key:
ECa-109 cell line [1] = assay: Induction of ROS-mediated apoptosis in human ECa-109 cells assessed as late apoptotic cells at 1 uM incubated for 48 hrs by annexin V-PE and 7-AAD staining based flow cytometry analysis (reference value: 3.89 %); assay type: functional
ECa-109 cell line [2] = assay: Induction of apoptosis in human ECa-109 cells assessed as necrotic cells at 1 uM incubated for 48 hrs by annexin-V-FITC and PI staining based fluorescence microscopic analysis (reference value: 1.19 %); assay type: functional
ECa-109 cell line [3] = assay: Induction of apoptosis in human ECa-109 cells assessed as early apoptotic cells at 1 uM incubated for 48 hrs by annexin-V-FITC and PI staining based fluorescence microscopic analysis (reference value: 0.971 %); assay type: functional
ECa-109 cell line [4] = assay: Induction of ROS-mediated apoptosis in human ECa-109 cells assessed as necrotic cells at 4 uM incubated for 48 hrs in presence of NAC by annexin V-PE and 7-AAD staining based flow cytometry analysis (reference value: 1.09 %); assay type: functional
ECa-109 cell line [5] = assay: Induction of ROS-mediated apoptosis in human ECa-109 cells assessed as early apoptotic cells at 4 uM incubated for 48 hrs by annexin V-PE and 7-AAD staining based flow cytometry analysis (reference value: 2.70 %); assay type: functional
ECa-109 cell line [6] = assay: Induction of apoptosis in human ECa-109 cells assessed as late apoptotic cells at 2 uM incubated for 48 hrs by annexin-V-FITC and PI staining based fluorescence microscopic analysis (reference value: 2.01 %); assay type: functional
HeLa = assay: Cytotoxicity against human HeLa cells assessed as reduction in cell viability incubated for 48 hrs by MTT assay; assay type: functional, cell-based
HepG2 = assay: Cytotoxicity against human HepG2 cells assessed as reduction in cell viability incubated for 48 hrs by MTT assay; assay type: functional, cell-based; settings: HepG2, 48 h
SGC-7901 [7] = assay: Cytotoxicity against human SGC-7901 cells assessed as reduction in cell viability incubated for 48 hrs by MTT assay; assay type: functional, cell-based; settings: SGC-7901, 48 h
ECa-109 cell line [8] = assay: Induction of ROS-mediated apoptosis in human ECa-109 cells assessed as necrotic cells at 1 uM incubated for 48 hrs by annexin V-PE and 7-AAD staining based flow cytometry analysis (reference value: 0.729 %); assay type: functional
ECa-109 cell line [9] = assay: Induction of ROS generation in human […] cells incubated for 48 hrs by DCFH-DA staining based fluorescence microscopic analysis; assay type: functional; settings: dose 1-4 µM
ECa-109 cell line [10] = assay: Induction of ROS-mediated apoptosis in human ECa-109 cells assessed as late apoptotic cells at 4 uM incubated for 48 hrs in presence of NAC by annexin V-PE and 7-AAD staining based flow cytometry analysis (reference value: 2.98 %); assay type: functional
ECa-109 cell line [11] = assay: Induction of ROS-mediated apoptosis in human ECa-109 cells assessed as viable cells at 2 uM incubated for 48 hrs in presence of NAC by annexin V-PE and 7-AAD staining based flow cytometry analysis (reference value: 94 %); assay type: functional; settings: read-out: Activity
ECa-109 cell line [12] = assay: Induction of ROS-mediated apoptosis in human ECa-109 cells assessed as viable cells at 2 uM incubated for 48 hrs by annexin V-PE and 7-AAD staining based flow cytometry analysis (reference value: 92.7 %); assay type: functional; settings: read-out: Activity
ECa-109 cell line [13] = assay: Induction of apoptosis in human ECa-109 cells assessed as decrease in caspase-8 incubated for 48 hrs by Western blot analysis; assay type: functional, cell-based; settings: dose 1-4 µM
L02 = assay: Cytotoxicity against human HL7702 cells assessed as reduction in cell viability incubated for 48 hrs by MTT assay; assay type: ADME, cell-based; settings: L02, 48 h
ECa-109 cell line [14] = assay: Cytotoxicity against human ECa-109 cells assessed as reduction in cell viability incubated for 48 hrs by MTT assay; assay type: functional, cell-based; settings: ECa-109, 48 h
ECa-109 cell line [15] = assay: Induction of apoptosis in human ECa-109 cells assessed as decrease in caspase-9 incubated for 48 hrs by Western blot analysis; assay type: functional, cell-based; settings: dose 1-4 µM
ECa-109 cell line [16] = assay: Induction of ROS-mediated apoptosis in human ECa-109 cells assessed as late apoptotic cells at 1 uM incubated for 48 hrs in presence of NAC by annexin V-PE and 7-AAD staining based flow cytometry analysis (reference value: 2.98 %); assay type: functional
ECa-109 cell line [17] = assay: Induction of apoptosis in human ECa-109 cells assessed as nuclear fragmentation at 1 to 4 uM incubated for 48 hrs by Hoechst staining based fluorescence microscopic analysis; assay type: functional, cell-based; settings: dose 1-4 µM
ECa-109 cell line [18] = assay: Induction of apoptosis in human ECa-109 cells assessed as downregulation of Bcl-xl incubated for 48 hrs by Western blot analysis; assay type: functional, cell-based; settings: dose 1-4 µM
ECa-109 cell line [19] = assay: Induction of ROS-mediated apoptosis in human ECa-109 cells assessed as early apoptotic cells at 4 uM incubated for 48 hrs in presence of NAC by annexin V-PE and 7-AAD staining based flow cytometry analysis (reference value: 1.90 %); assay type: functional
SGC-7901 [20] = assay: Induction of ROS-mediated apoptosis in human SGC-7901 cells assessed as viable cells at 1 uM incubated for 48 hrs by annexin V-PE and 7-AAD staining based flow cytometry analysis (reference value: 93.6 %); assay type: functional; settings: read-out: Activity
SGC-7901 [21] = assay: Induction of ROS-mediated apoptosis in human SGC-7901 cells assessed as necrotic cells at 4 uM incubated for 48 hrs in presence of NAC by annexin V-PE and 7-AAD staining based flow cytometry analysis (reference value: 0.623 %); assay type: functional
SGC-7901 [22] = assay: Induction of ROS-mediated apoptosis in human SGC-7901 cells assessed as late apoptotic cells at 4 uM incubated for 48 hrs in presence of NAC by annexin V-PE and 7-AAD staining based flow cytometry analysis (reference value: 3.45 %); assay type: functional
SGC-7901 [23] = assay: Induction of ROS-mediated apoptosis in human SGC-7901 cells assessed as late apoptotic cells at 1 uM incubated for 48 hrs in presence of NAC by annexin V-PE and 7-AAD staining based flow cytometry analysis (reference value: 3.45 %); assay type: functional
SGC-7901 [24] = assay: Induction of apoptosis in human SGC-7901 cells assessed as necrotic cells at 2 uM incubated for 48 hrs by annexin-V-FITC and PI staining based fluorescence microscopic analysis (reference value: 1.03 %); assay type: functional
SGC-7901 [25] = assay: Induction of cell cycle arrest in human SGC-7901 cells assessed as accumulation in G2/M phase at 2 uM incubated for 48 hrs by PI staining based flow cytometry analysis (reference value: 11.48 %); assay type: functional
SGC-7901 [26] = assay: Induction of apoptosis in human SGC-7901 cells assessed as early apoptotic cells at 2 uM incubated for 48 hrs by annexin-V-FITC and PI staining based fluorescence microscopic analysis (reference value: 1.87 %); assay type: functional
SGC-7901 [27] = assay: Induction of apoptosis in human SGC-7901 cells at 1 to 4 uM incubated for 48 hrs by AO/PI staining based fluorescence microscopic analysis; assay type: functional, cell-based; settings: dose 1-4 µM
SGC-7901 [28] = assay: Induction of cell cycle arrest in human SGC-7901 cells assessed as accumulation in G0/G1 phase at 4 uM incubated for 48 hrs by PI staining based flow cytometry analysis (reference value: 57.39 %); assay type: functional
SGC-7901 [29] = assay: Induction of ROS-mediated apoptosis in human SGC-7901 cells assessed as necrotic cells at 1 uM incubated for 48 hrs by annexin V-PE and 7-AAD staining based flow cytometry analysis (reference value: 0.733 %); assay type: functional
SGC-7901 [30] = assay: Induction of cell cycle arrest in human SGC-7901 cells assessed as accumulation in G0/G1 phase at 2 uM incubated for 48 hrs by PI staining based flow cytometry analysis (reference value: 57.39 %); assay type: functional

COc1ccccc1Cn1n[n+](C)c2c1C(C)(C)[C@@H]1CC[C@]3(C)[C@H](CC[C@@H]4[C@H]5[C@H]6OC[C@@]5(CCC6(C)C)CC[C@]43C)[C@@]1(C)C2.[I-]
Activity (ECa-109 cell line [1]): 18.6% | Activity (ECa-109 cell line [2]): 0.624% | Activity (ECa-109 cell line [3]): 17.4% | Activity (ECa-109 cell line [4]): 3.83% | Activity (ECa-109 cell line [5]): 2% | Activity (ECa-109 cell line [6]): 23% | IC50 (HeLa): 1.49 µM | IC50 (HepG2): 1.52 µM | IC50 (SGC-7901 [7]): 1.92 µM | Activity (ECa-109 cell line [8]): 2.92% | Activity (ECa-109 cell line [9]): Dose-dependent effect | Activity (ECa-109 cell line [10]): 78.9% | viability at 2 µM (ECa-109 cell line [11]): 66.2% | viability at 2 µM (ECa-109 cell line [12]): 55% | Activity (ECa-109 cell line [13]): Dose-dependent effect | IC50 (L02): 1.59 µM | IC50 (ECa-109 cell line [14]): 1.04 µM | Activity (ECa-109 cell line [15]): Dose-dependent effect | Activity (ECa-109 cell line [16]): 13.7% | Activity (ECa-109 cell line [17]): Active | Activity (ECa-109 cell line [18]): Dose-dependent effect | Activity (ECa-109 cell line [19]): 3.5%

C[n+]1nn(Cc2c(F)cccc2Cl)c2c1C[C@]1(C)[C@H]3CC[C@@H]4[C@H]5[C@H]6OC[C@@]5(CCC6(C)C)CC[C@@]4(C)[C@]3(C)CC[C@H]1C2(C)C.[I-]
viability at 1 µM (SGC-7901 [20]): 80.5% | Activity (SGC-7901 [21]): 2.66% | Activity (SGC-7901 [22]): 77.8% | IC50 (HeLa): 2.16 µM | IC50 (HepG2): 2.62 µM | IC50 (SGC-7901 [7]): 1.12 µM | Activity (SGC-7901 [23]): 4.96% | Activity (SGC-7901 [24]): 1.56% | Activity (SGC-7901 [25]): 9.6% | Activity (SGC-7901 [26]): 25.4% | IC50 (L02): 2.33 µM | Activity (SGC-7901 [27]): Active | Activity (SGC-7901 [28]): 59.38% | IC50 (ECa-109 cell line [14]): 2.63 µM | Activity (SGC-7901 [29]): 0.838% | Activity (SGC-7901 [30]): 74.64%
